Experimental data reported in patent US20210255184A1, “Biosensor Device and Methods” (The New Zealand Institute for Plant and Food Research …, priority 2018, published 2021).

Key:
[1] = target: T1, Orco (Drosophila melanogaster, UniProt Q9VNB5); experiment: EIS sensor, Orco liposomes (specificity control); assay type: biochemical; settings: Orco only liposomes
T1 construct: his-tag; made in house; host or cells: baculovirus-infected Sf9 cells
T1 sequence (Q9VNB5 1-486): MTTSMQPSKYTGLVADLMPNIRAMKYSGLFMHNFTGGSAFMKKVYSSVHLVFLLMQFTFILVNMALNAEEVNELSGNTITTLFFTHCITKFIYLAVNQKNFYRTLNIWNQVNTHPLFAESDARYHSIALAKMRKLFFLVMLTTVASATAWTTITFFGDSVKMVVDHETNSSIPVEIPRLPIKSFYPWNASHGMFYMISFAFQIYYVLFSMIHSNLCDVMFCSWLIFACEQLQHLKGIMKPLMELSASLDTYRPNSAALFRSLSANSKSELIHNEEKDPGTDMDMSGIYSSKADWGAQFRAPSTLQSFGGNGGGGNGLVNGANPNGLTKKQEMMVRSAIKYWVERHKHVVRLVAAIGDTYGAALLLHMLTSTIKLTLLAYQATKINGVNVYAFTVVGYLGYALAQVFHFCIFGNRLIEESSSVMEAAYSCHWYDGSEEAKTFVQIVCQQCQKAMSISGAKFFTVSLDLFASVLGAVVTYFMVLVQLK
Experimental: Prior to their use, liposomes were defrosted on ice and then destabilized by incubating with 0.2% CHAPS for 15 min at room temperature. Then 200 μg of purified odorant receptor^28 was added to 1 mg of liposomes and rotated at 10 rpm for 1 h at room temperature. Excess detergent was removed by four additions of 25 mg of Bio-Beads SM-2 (Bio-Rad, USA) and incubation at 4° C. for 30 min, 2 h, overnight and a further 2 h respectively. The Bio-Beads were removed after each incubation period. The OrX or OrX/Orco integrated liposomes were pelleted by centrifugation at 100,000 g for 1 h, and were resuspended in 500 μL of rehydration buffer. Integration of OrXs and Orco into liposomes was assessed by density gradient ultracentrifugation (DGU) using Accudenz (Accurate Chemical & Scientific Corporation, USA). The integrated liposomes were brought to 40% Accudenz by the addition of an equal volume of 80% Accudenz solution, placed at the bottom of an ultra-centrifugation tube, and overlaid with 30% Accudenz solution, and DGU buffer (25 mM HEPES pH 7.5, 100 mM NaCl, 10% glycerol). The sample was then centrifuged at 100,000 g for 4 h at 4° C. […]
PBS solution was prepared by immersing one tablet of PBS in 200 ml of milli-Q water (according to manufacturers instructions) and filtered using 0.2-μm syringe filter. The pH of the prepared buffer solution was measured with a pH meter. […]

[2] = GFET sensor, empty liposomes (control); assay type: biochemical
Experimental: The OR liposomes were functionalised onto the graphene surface via a non-covalent route using PBASE as the molecular linker as shown in FIG. 13. The OR liposomes were diluted at 1:10 ratio with 1×PBS (pH7.4). The cleaned GFETs were immersed in 1 mM PBASE solution in methanol for 1 hour. The devices were washed three times in methanol and subsequently washed three times in 1×PBS to remove the excess PBASE and residual methanol in the channel respectively. The OR liposomes were diluted 1:10 with 1×PBS (pH 7.4) and 100 μL of the OR dilution was placed in the graphene channel and incubated at room temperature for one hour in a closed petri dish. After OR liposome functionalization, the devices were washed in 1×PBS for 10 s before measurements.
The OR liposome immobilised GFET device with a PDMS well mounted on it was placed onto the probe station and the source and drain connections were made by micromanipulators. 100 μl of PBS containing 1% dimethyl sulfoxide (DMSO) was added to the well and the Ag/AgCl standard electrode was placed into the buffer. The stock solution of ligands at 100 mM concentrations were prepared by dissolving them in DMSO as they are not stable in aqueous buffer. The stock solution was stored at 4° C. The ligand solution for sensing was prepared by diluting the stock solution in 1×PBS buffer containing 1% DMSO to set concentrations from 10 fM to 100 pM. […]

Structure (SMILES): CCCCCC(=O)OC [methyl hexanoate]
- sensor response to ligand [1]: negligible response
- sensor response to target ligand [2]: lack of response

Structure (SMILES): COC(=O)c1ccccc1O [methyl salicylate]
- sensor response to ligand [1]: negligible response
- sensor response to target ligand [2]: lack of response
